# Measured values as given in patent US10314826B2, “Methods of treatment of ischemia-induced angiogenesis and arteriogenesis” (UNIVERSITY OF MARYLAND, BALTIMORE, priority 2014, dated 2019).
# Legend:
# endothelial cells [1] = conditions: report of Chavala et al [26]; cited from earlier work
# endothelial cells [2] = conditions: report of Chavala et al [26]; cited from earlier work; remark: listed apart in the source
# VSMC = conditions: report of Chavala et al [26]; cited from earlier work
# p53 [3] = conditions: report of Chavala et al [26]; cited from earlier work
# p53 [4] = biological target: T1, p53 (Mus musculus, UniProt P02340); test: Capillary density in ischemic tibialis anterior muscle after hindlimb ischemia; type: in vivo; parameters: from tissue; host or cells: live C57Bl/6 p53+/+ mice (hindlimb muscle and arteries); conditions: p53+/+ mice, vs vehicle
# p53 [5] = biological target: T1, p53; test: Diabetic ischemia model of hindlimb ischemia; type: in vivo; parameters: relieving ischemia in a clinically relevant diabetic ischemia model of hindlimb ischemia; from tissue; host or cells: animal model of diabetic hindlimb ischemia (not described further); conditions: clinically relevant diabetic ischemia model of hindlimb ischemia
# p53 [6] = biological target: T1, p53; test: Collateral artery development (arteriogenesis, gracilis artery index) after hindlimb ischemia; type: in vivo; parameters: from tissue; host or cells: live C57Bl/6 p53+/+ mice (hindlimb muscle and arteries); conditions: p53+/+ mice, vs vehicle
# Procedure: All experiments and animal husbandry were performed with approval from the University of California, San Francisco and University of Maryland Institutional Animal Care and Use Committees. Wild-type (p53^+/+), p53-null (p53^−/−), and p53^−/+ heterozygoytes were maintained on a C57Bl/6 background. […] For pharmacological modulation of p53 in vivo, quinacrine or vehicle (sterile water) was administered intraperitoneally at 10 mg/kg/day, beginning 5 days prior to surgery, and continued daily post-operatively until the experimental endpoint; PFT-α or vehicle (10% DMSO) was administered intraperitoneally at 2 mg/kg/day every other day beginning two days prior to surgery and continued until the experimental end-point. Mesenteric artery ligation was performed on 8- to 12-week old male wild-type and p53^−/− mice as described previously with modifications. A laparotomy was performed and the small intestine exposed and suffused with warmed saline. […] The control artery (CTL) was considered a straight artery three arteries from the site of ligation. […]
# Independent experiments with separate animal cohorts for capillary and larger artery analysis were performed. […] Vascular regions were quantified individually and normalized to the contralateral control muscle. […] Two 5 μm sections in two separate areas 0.5 mm apart were measured and the results averaged. […]
# HIF-1α = test: Immunoblot of HIF-1α protein in ischemic tissue after hindlimb ischemia; type: in vivo, mouse
# Procedure: (§1) All experiments and animal husbandry were performed with approval from the University of California, San Francisco and University of Maryland Institutional Animal Care and Use Committees. Wild-type (p53^+/+), p53-null (p53^−/−), and p53^−/+ heterozygoytes were maintained on a C57Bl/6 background. […]
# (§2) TA tissue from ischemic and control limbs from were harvested and pulverized in liquid nitrogen. For whole cell lysates, pulverized tissue was incubated in a modified RIPA buffer (50 mM Tris-HCl, pH 7.4; 1% SDS; 1% NP-40; 0.25% sodium deoxycholate; 1 mM PMSF; 1 mM DTT; Complete Mini, EDTA-free protease inhibitor cocktail and PhosStop phosphatase inhibitor tablets (Roche Applied Science; Indianapolis, Ind.), strained, and sonicated 3 times for 10 seconds. Samples were centrifuged at 10,000 G for ten minutes at 4 C, and the supernatant preserved. Protein concentration was measured using a BCA Protein Assay Kit. A total of 20 μg of protein was resolved on a 4-12% Bis-Tris gradiant polyacrylamide gel (Invitrogen; Carlsbad, Calif.) under reduced conditions and transferred to a PVDF membrane (Amersham Biosciences; Pittsburgh, Pa.). […]
# p53 [7] = test: Blood flow restoration after hindlimb ischemia by LDPI, p53-/- mice (specificity control); type: in vivo, mouse; conditions: 2 weeks after hindlimb ischemia
# Procedure: (§3) All experiments and animal husbandry were performed with approval from the University of California, San Francisco and University of Maryland Institutional Animal Care and Use Committees. Wild-type (p53^+/+), p53-null (p53^−/−), and p53^−/+ heterozygoytes were maintained on a C57Bl/6 background. […] For pharmacological modulation of p53 in vivo, quinacrine or vehicle (sterile water) was administered intraperitoneally at 10 mg/kg/day, beginning 5 days prior to surgery, and continued daily post-operatively until the experimental endpoint; PFT-α or vehicle (10% DMSO) was administered intraperitoneally at 2 mg/kg/day every other day beginning two days prior to surgery and continued until the experimental end-point. […]
# (§4) Restoration of blood flow after hindlimb ischemia was assessed by laser Doppler perfusion imaging (LDPI) of the hindlimb paws using a PeriScan PIM 3 System (Perimed AB; Stockholm, Sweden) as previously described. Three successive readings were averaged and expressed as an ischemic index (ischemic paw over contralateral paw). For mesenteric artery ligation, blood flow was measured in the HF or CTL artery as volume-flow with a nanoprobe secured around the artery (0.5 mm nanoprobe, Transonic Systems Inc., Ithaca, N.Y.) in anesthetized mice. Flow was averaged over ten minutes and expressed as an arterial index (HF artery over CTL artery).
# p53 [8] = biological target: T1, p53; test: Blood flow restoration after hindlimb ischemia by laser Doppler perfusion imaging (LDPI), p53+/+ mice; type: in vivo; parameters: from tissue; host or cells: live C57Bl/6 p53+/+ mice (hindlimb muscle and arteries); conditions: 2 weeks after hindlimb ischemia, vs vehicle
# Procedure: as §3, §4
# VEGF = test: Immunoblot of VEGF protein in ischemic tissue after hindlimb ischemia; type: in vivo, mouse
# Procedure: as §1, §2
# aortic rings = test: Endothelial outgrowth aortic ring assay under hypoxic conditions; type: cell-based, mouse; conditions: 20 μM quinacrine, vs vehicle-treated controls
# [9] = PFT-α 2 mg/kg/day every other day intraperitoneally
# [10] = PFT-α-treated mice, 3 days after surgery
# [11] = quinacrine 10 mg/kg/day intraperitoneally
# [12] = quinacrine-treated mice, 7 days after hindlimb ischemia
# T1 sequence (P02340 whole entry): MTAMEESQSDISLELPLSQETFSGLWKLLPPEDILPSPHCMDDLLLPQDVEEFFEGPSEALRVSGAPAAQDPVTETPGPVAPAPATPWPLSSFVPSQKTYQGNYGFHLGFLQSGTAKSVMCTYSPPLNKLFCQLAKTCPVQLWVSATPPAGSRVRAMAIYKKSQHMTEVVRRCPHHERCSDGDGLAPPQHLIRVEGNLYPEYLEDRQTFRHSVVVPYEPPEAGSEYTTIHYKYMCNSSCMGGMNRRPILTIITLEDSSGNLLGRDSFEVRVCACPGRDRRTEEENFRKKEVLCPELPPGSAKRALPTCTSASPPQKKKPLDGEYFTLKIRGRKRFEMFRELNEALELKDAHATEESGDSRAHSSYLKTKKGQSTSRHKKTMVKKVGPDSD
smiles,measurement,setting,value
COc1ccc(C2=N[C@@H](c3ccc(Cl)cc3)[C@@H](c3ccc(Cl)cc3)N2C(=O)N2CCNC(=O)C2)c(OC(C)C)c1 [Nutlin-3],proliferation of endothelial cells,endothelial cells [1],inhibited proliferation
same,apoptosis in endothelial cells,endothelial cells [2],induced apoptosis
same,proliferation of VSMC,VSMC,inhibited proliferation
same,pathologic retinal angiogenesis,p53 [3],inhibit pathologic retinal angiogenesis
"Cc1ccc(C(=O)Cn2c3c(sc2=N)CCCC3)cc1 [PFT-α, pifithrin-α]",capillary growth (capillary counts),p53 [4]; [9],No difference in capillary growth was detected
same,arteriogenesis and relief of ischemia,p53 [5],highly effective at increasing arteriogenesis and relieving ischemia
same,collateral vessel formation (gracilis artery index),"p53 [6]; PFT-α 2 mg/kg/day every other day intraperitoneally, 2 weeks after hindlimb ischemia",collateral vessel formation increased
same,HIF-1α protein levels,HIF-1α; [10],increase
same,blood flow restoration after ischemia in p53-/- mice (LDPI),p53 [7]; PFT-α,had no effect on blood flow restoration
same,blood flow restoration after ischemia (LDPI),p53 [8]; [9],enhanced blood flow restoration
same,VEGF protein levels,VEGF; [10],increase
CCN(CC)CCCC(C)Nc1c2ccc(Cl)cc2nc2ccc(OC)cc12 (stereo not drawn) [quinacrine],endothelial outgrowth from aortic rings,aortic rings,significantly inhibited endothelial outgrowth
same,capillary density,p53 [4]; [11],did not affect capillary density
same,collateral development (larger vessel growth),"p53 [6]; quinacrine 10 mg/kg/day intraperitoneally, hindlimb ischemia",did impair collateral development
same,HIF-1α protein levels,HIF-1α; [12],suppressed
same,blood flow after ischemia in p53-/- mice (LDPI),p53 [7]; quinacrine,had no effect on blood flow
same,blood flow after ischemia (LDPI),p53 [8]; [11],significantly attenuated the improvement in blood flow
same,VEGF protein levels,VEGF; [12],suppressed
